In patent publication US8513232B2, “Substituted spirocyclic piperidine derivatives as histamine-3 (H3) receptor ligands” (Cephalon, Inc., priority 2008, dated 2013):
Read-outs that look alike come from different tables or passages of the source.

What was measured:
[1] = target: T1, human H3 receptor (Homo sapiens, UniProt Q9Y5N1); experiment: Human H3 radioligand binding ([3H]-N-alpha-methylhistamine, SPA)
T1 construct: expressed in transfected cells
Method in brief: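 SPA competition binding on membranes from CHO cells stably expressing human H3 receptor (10 μg protein/well) with ~1 nM [3H]-N-alpha-methylhistamine and compound at 0.01 nM-30 μM. Incubation 4 h at room temperature in 50 mM Tris-HCl pH 7.4, 5 mM MgCl2, 0.1% BSA; non-specific binding defined with 10 μM clobenpropit.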

[2] = target: T2, rat histamine H3 receptor (Rattus norvegicus, UniProt Q9QYN8); experiment: Rat H3 radioligand binding ([3H]-N-alpha-methylhistamine, SPA)
T2 construct: encoding the entire 445-amino-acid rat histamine H3 receptor; expressed in transfected cells; membrane preparation
T2 sequence (Q9QYN8 whole entry): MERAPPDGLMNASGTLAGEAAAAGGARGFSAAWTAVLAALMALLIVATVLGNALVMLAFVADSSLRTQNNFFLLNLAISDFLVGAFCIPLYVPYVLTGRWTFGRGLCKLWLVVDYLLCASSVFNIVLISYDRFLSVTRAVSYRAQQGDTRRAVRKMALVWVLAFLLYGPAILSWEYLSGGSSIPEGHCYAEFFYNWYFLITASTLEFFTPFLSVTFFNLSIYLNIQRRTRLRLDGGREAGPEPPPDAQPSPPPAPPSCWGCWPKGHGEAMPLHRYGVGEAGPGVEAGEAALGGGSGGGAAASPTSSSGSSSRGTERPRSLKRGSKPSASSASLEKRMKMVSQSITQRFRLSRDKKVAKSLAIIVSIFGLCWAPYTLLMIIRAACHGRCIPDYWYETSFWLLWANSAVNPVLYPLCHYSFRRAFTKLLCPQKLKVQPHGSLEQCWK
Method in brief: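 Membranes from CHO-A3 cells stably expressing full-length rat H3 receptor (10 μg protein/well) incubated 4 h at room temperature, protected from light, with ~1 nM [3H]-N-alpha-methylhistamine and compound (0.01 nM-30 μM) in 50 mM Tris HCl pH 7.4, 5 mM MgCl2, 0.1% BSA. Binding read by SPA; 10 μM clobenpropit defined non-specific binding.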

[3] = Table C, human H3 binding, read-out: Human H3 Ki
[4] = Table C, rat H3 binding, read-out: Rat H3 Ki
[5] = Table A, human H3 binding, read-out: Human Ki
[6] = Table A, rat H3 binding, read-out: Rat Ki
[7] = human H3 binding, Table D, read-out: Human H3 Ki
[8] = rat H3 binding, Table D, read-out: Rat H3 Ki
[9] = Human H3 binding, Table B, Examples 136-362, read-out: hum H3 binding Ki
[10] = Rat H3 binding, Table B, Examples 136-362, read-out: rat H3 binding Ki

T1 sequence (Q9Y5N1 whole entry): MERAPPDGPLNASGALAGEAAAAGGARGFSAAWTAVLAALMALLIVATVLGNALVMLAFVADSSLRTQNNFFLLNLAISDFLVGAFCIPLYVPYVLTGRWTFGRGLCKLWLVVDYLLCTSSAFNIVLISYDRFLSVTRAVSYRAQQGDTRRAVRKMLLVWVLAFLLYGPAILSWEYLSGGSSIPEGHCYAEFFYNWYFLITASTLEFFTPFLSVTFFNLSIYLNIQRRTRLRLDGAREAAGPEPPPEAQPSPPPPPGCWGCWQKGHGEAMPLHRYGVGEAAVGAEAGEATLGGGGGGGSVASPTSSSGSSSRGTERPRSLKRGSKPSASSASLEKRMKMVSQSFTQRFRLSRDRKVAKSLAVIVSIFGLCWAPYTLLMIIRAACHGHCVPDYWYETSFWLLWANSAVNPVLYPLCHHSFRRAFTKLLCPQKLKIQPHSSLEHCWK

Structure (SMILES)	melting point	Ki [1, 7]	Ki [2, 8]	further results
CCS(=O)(=O)N1CCC(Oc2ccc3c(c2)CCC2(CCN(C4CCC4)CC2)O3)CC1 [Example 441]	226 to 229 °C			Ki [1, 3]: < 200 nM; Ki [2, 4]: < 200 nM
CCS(=O)(=O)c1c[nH]c(=O)cc1-c1ccc2c(c1)COC1(CCN(C3CCC3)CC1)O2 [Example 793]	190 to 192 °C	< 200 nM	< 200 nM	
FC1(F)CCN(c2ccc3c(c2)CCC2(CCN(C4CCC4)CC2)O3)C1 [Example 413]	> 275 °C (dec.)			Ki [1, 3]: < 200 nM; Ki [2, 4]: < 200 nM
O=C(NC1CCOCC1)c1ccc(-c2ccc3c(c2)COC2(CCN(C4CCC4)CC2)O3)cc1F [Example 640]	165 to 167 °C	< 200 nM	< 200 nM	
CS(=O)(=O)c1ccccc1C(=O)Nc1ccc2c(c1)COC1(CCN(C3CCC3)CC1)O2 [Example 216]	143 to 145 °C			Ki [1, 9]: 200 to 1000 nM; Ki [2, 10]: < 200 nM
CCOCC1CCN(c2ccc3c(c2)COC2(CCN(C4CCC4)CC2)O3)CC1 [Example 627]	85.2 to 86.5 °C	< 200 nM	< 200 nM	
CN1CCN(c2ccc3c(c2)COC2(CCN(C4CCC4)CC2)O3)C1=O [Example 82]	180 to 181 °C			Ki [1, 5]: < 200 nM; Ki [2, 6]: < 200 nM
O=C(NCCO)c1c(F)cc(-c2ccc3c(c2)CCC2(CCN(C4CCC4)CC2)O3)cc1F [Example 260]	76.3 to 78.2 °C			Ki [1, 9]: < 200 nM; Ki [2, 10]: < 200 nM
OC1(c2ccc3c(c2)COC2(CCN(C4CCC4)CC2)O3)CCCCC1 [Example 512]	164 to 165 °C			Ki ([1]; read-out: Human H3 Ki): < 200 nM; Ki ([2]; read-out: Rat H3 kI): < 200 nM
c1cc2c(cc1N1CCC(N3CCOCC3)CC1)COC1(CCN(C3CCC3)CC1)O2 [Example 298]	142.4 to 144.3 °C			Ki [1, 9]: < 200 nM; Ki [2, 10]: < 200 nM
Nc1ccc2c(c1)COC1(CCN(C3CCC3)CC1)O2 [Example 350]	160 to 162 °C			Ki [1, 9]: 200 to 1000 nM; Ki [2, 10]: 200 to 1000 nM
CC(C)n1cc(Cl)c(-c2ccc3c(c2)COC2(CCN(C4CCC4)CC2)O3)cc1=O [Example 779]	179 to 181 °C	< 200 nM	< 200 nM	
CC(C)OCCNC(=O)c1ccc(-c2ccc3c(c2)CCC2(CCN(C4CCC4)CC2)O3)cc1 [Example 312]	135 to 137 °C			Ki [1, 9]: < 200 nM; Ki [2, 10]: < 200 nM
c1ncc(COc2ccc3c(c2)CCC2(CCN(C4CCC4)CC2)O3)s1 [Example 574]	85 to 87 °C	< 200 nM	< 200 nM	
COCCN(C)C(=O)c1c(F)cc(-c2ccc3c(c2)COC2(CCN(C4CCC4)CC2)O3)cc1F [Example 359]	78 to 80 °C			Ki [1, 9]: < 200 nM; Ki [2, 10]: < 200 nM
OC1(c2ccc3c(c2)COC2(CCN(C4CCC4)CC2)O3)CCSC1 (stereo not drawn) [Example 471]	125 to 126 °C			Ki ([1]; read-out: Human H3 Ki): < 200 nM; Ki ([2]; read-out: Rat H3 kI): < 200 nM

Continued, in another order:

melting point	Ki [1, 7]	Ki [2, 8]	Structure (SMILES)	further results
245 to 247 °C			CNC(=O)c1ccc(Oc2ccc3c(c2)CCC2(CCN(C4CCC4)CC2)O3)nc1 [Example 401]	Ki [1, 3]: < 200 nM; Ki [2, 4]: < 200 nM
76 to 80 °C			CN(C)C(=O)c1cccc2c1ccn2-c1ccc2c(c1)COC1(CCN(C3CCC3)CC1)O2 [Example 85]	Ki [1, 5]: < 200 nM; Ki [2, 6]: < 200 nM
207 to 209 °C	< 200 nM	< 200 nM	Cn1cc(-c2ccc3c(c2)COC2(CCN(C4CCC4)CC2)O3)c2ccccc2c1=O [Example 786]	
158 to 160 °C	< 200 nM	< 200 nM	O=c1ccc(-c2ccc3c(c2)COC2(CCN(C4CCC4)CC2)O3)cn1CC(F)(F)F [Example 710]	
129 to 134 °C			CC(C)N1CC(c2ccc3c(c2)COC2(CCN(C4CCC4)CC2)O3)CCC1=O (stereo not drawn) [Example 563]	Ki ([1]; read-out: Human H3 Ki): < 200 nM; Ki ([2]; read-out: Rat H3 kI): < 200 nM
56 to 58 °C			Cc1ccc(C#N)c(Nc2ccc3c(c2)COC2(CCN(C4CCC4)CC2)O3)n1 [Example 236]	Ki [1, 9]: < 200 nM; Ki [2, 10]: < 200 nM
78.4 to 80.2 °C	< 200 nM	< 200 nM	O=S(=O)(c1ccccc1)C1CCN(c2ccc3c(c2)COC2(CCN(C4CCC4)CC2)O3)CC1 [Example 583]	
159 to 161 °C	< 200 nM	< 200 nM	O=C(NC[C@@H]1CCCO1)c1ccc(-c2ccc3c(c2)COC2(CCN(C4CCC4)CC2)O3)cc1Cl [Example 585]	
173 to 175 °C			O=C(Nc1ccc2c(c1)COC1(CCN(C3CCC3)CC1)O2)c1cnccn1 [Example 304]	Ki [1, 9]: < 200 nM; Ki [2, 10]: < 200 nM
173 to 175 °C	< 200 nM	200 to 1000 nM	COc1cc(-c2ccc3c(c2)COC2(CCN(C4CCC4)CC2)O3)ccc1C(=O)O [Example 624]	
250 °C (dec.)	< 200 nM	< 200 nM	NC(=O)c1ccc(-c2ccc3c(c2)COC2(CCN(C4CCC4)CC2)O3)s1 [Example 679]	
153 to 155 °C			c1ncc(-c2ccc3c(c2)COC2(CCN(C4CCC4)CC2)O3)cn1 [Example 45]	Ki [1, 5]: < 200 nM; Ki [2, 6]: < 200 nM
> 265 °C (dec.)			OC1CCN(c2ccc3c(c2)CCC2(CCN(C4CCC4)CC2)O3)CC1 [Example 405]	Ki [1, 3]: < 200 nM; Ki [2, 4]: < 200 nM
71 to 73 °C	< 200 nM	< 200 nM	O=C(CCc1ccc2c(c1)COC1(CCN(C3CCC3)CC1)O2)N1CCOCC1 [Example 660]	
151 to 152 °C			O=S1(=O)CCC(c2ccc3c(c2)COC2(CCN(C4CCC4)CC2)O3)C1 (stereo not drawn) [Example 491]	Ki ([1]; read-out: Human H3 Ki): < 200 nM; Ki ([2]; read-out: Rat H3 kI): < 200 nM
87 to 90 °C	< 200 nM	< 200 nM	CNC(=O)c1ccc(-c2ccc3c(c2)COC2(CCN(C4CCC4)CC2)O3)c(OC)c1 [Example 682]	
124.6 to 126.4 °C			COCCNC(=O)c1ccc(-c2ccc3c(c2)COC2(CCN(C4CCC4)CC2)O3)cc1C [Example 255]	Ki [1, 9]: < 200 nM; Ki [2, 10]: < 200 nM
149 to 152 °C	< 200 nM	< 200 nM	Cc1ccc2nc(C)n(-c3ccc4c(c3)COC3(CCN(C5CCC5)CC3)O4)c(=O)c2c1 [Example 792]	
54 to 58 °C			N#Cc1ccccc1Nc1ccc2c(c1)COC1(CCN(C3CCC3)CC1)O2 [Example 125]	Ki [1, 5]: < 200 nM; Ki [2, 6]: < 200 nM
102 to 103 °C	< 200 nM	< 200 nM	Cc1cnc(C)c(-c2ccc3c(c2)COC2(CCN(C4CCC4)CC2)O3)n1 [Example 752]	
246 to 249 °C			Cc1c(-c2ccc(=O)[nH]c2)ccc2c1COC1(CCN(C3CCC3)CC1)O2 [Example 552]	Ki ([1]; read-out: Human H3 Ki): < 200 nM; Ki ([2]; read-out: Rat H3 kI): < 200 nM
209 to 211 °C	< 200 nM	< 200 nM	O=C(NC1CCOCC1)c1ccc(-c2ccc3c(c2)COC2(CCN(C4CCC4)CC2)O3)s1 [Example 631]	
